Experimental data from the supplement of paper PMC10331698.
± gives the standard deviation of the averaged measurements.

Assays:
Assay in all cases: level (log10 ratio to DMSO vehicle control); higher = higher biomarker level / cell amount than vehicle control
[1] = compound: C[C@@H]1C[C@H]2[C@@H]3CCC4=CC(=O)C=C[C@]4(C)[C@@]3(F)[C@@H](O)C[C@]2(C)[C@@]1(O)C(=O)COP(=O)(O)O [Dexamethasone sodium phosphate] (in DMSO)
Procedure: (§1)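 BioMAP Diversity Plus panel of 12 human primary cell co-culture systems (3C, 4H, LPS, SAg, BT, BF4T, BE3C, CASM3C, HDF3CGF, KF3CT, MyoF, Mphg). Compounds were added 1 h before stimulation and left for 24 h (MyoF 48 h; BT 72 h for soluble read-outs or 6 d for IgG). Biomarkers were read by ELISA, cytotoxicity by SRB, PBMC viability and proliferation by Alamar Blue. Each well value was divided by the mean of 8 DMSO control wells on the same plate and log10 transformed; duplicate blinded samples were tested at 4 concentrations.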

[2] = compound: NS(=O)(=O)C(F)(F)C(F)(F)C(F)(F)C(F)(F)C(F)(F)C(F)(F)C(F)(F)C(F)(F)F [Perfluorooctanesulfonamide] (in DMSO)
Procedure: as §1

Perfluoroundecanoic acid = compound: O=C(O)C(F)(F)C(F)(F)C(F)(F)C(F)(F)C(F)(F)C(F)(F)C(F)(F)C(F)(F)C(F)(F)C(F)(F)F [Perfluoroundecanoic acid] (in DMSO); details: 6700 nM
Procedure: as §1

Perfluorononanoic acid = compound: O=C(O)C(F)(F)C(F)(F)C(F)(F)C(F)(F)C(F)(F)C(F)(F)C(F)(F)C(F)(F)F [Perfluorononanoic acid] (in DMSO)
Procedure: as §1

[3] = compound: O=C(O)C(F)(OC(F)(F)C(F)(OC(F)(F)C(F)(OC(F)(F)C(F)(F)C(F)(F)F)C(F)(F)F)C(F)(F)F)C(F)(F)F [Perfluoro-(2,5,8-trimethyl-3,6,9-trioxadodecanoic)acid] (in DMSO)
Procedure: as §1

[4] = compound: O=S(=O)(O)C(F)(F)C(F)(F)OC(F)(F)C(F)(F)F [Perfluoro(2-ethoxyethane)sulfonic acid] (in DMSO)
Procedure: as §1

[5] = compound: OCCC(F)(F)C(F)(F)C(F)(F)C(F)(F)F [4:2 Fluorotelomer alcohol] (in DMSO)
Procedure: as §1

Test System	level (log10) ([1]; 1500 nM)	level (log10) ([1]; 4400 nM)	level (log10) ([1]; 13000 nM)	level (log10) ([1]; 40000 nM)	level (log10) ([2]; 6700 nM)	level (log10) ([2]; 20000 nM)	level (log10) (Perfluoroundecanoic acid)	level (log10) (Perfluorononanoic acid; 6700 nM)	level (log10) (Perfluorononanoic acid; 20000 nM)	level (log10) ([3]; 1100 nM)	level (log10) ([3]; 3300 nM)	level (log10) ([3]; 10000 nM)	level (log10) ([4]; 6700 nM)	level (log10) ([4]; 20000 nM)	level (log10) ([4]; 60000 nM)	level (log10) ([5]; 6700 nM)	level (log10) ([5]; 20000 nM)	level (log10) ([5]; 60000 nM)
4H:CD62P/P-selectin	-0.0355 ± 0.037	-0.038 ± 0.0042	-0.022 ± 0.011	-0.033 ± 0.047	0.028 ± 0.014	-0.0235 ± 0.018	0.064 ± 0.0028	0.015 ± 0.0099	0.0605 ± 0.011	-0.002 ± 0.069	0.0295 ± 0.0064	-0.0445 ± 0.026	-0.02 ± 0.014	0.0445 ± 0.005	-0.0105 ± 0.015	-0.0235 ± 0.037	-0.02 ± 0.0071	0.025 ± 0.023
4H:CD87/uPAR	-0.0055 ± 0.0021	-0.0195 ± 0.022	-0.024 ± 0.086	-0.0375 ± 0.094	0.0155 ± 0.0064	-0.026 ± 0.028	-0.008 ± 0.025	-0.0245 ± 0.026	-0.012 ± 0.0071	0.001 ± 0.027	-0.0025 ± 0.011	0.0075 ± 0.0092	0.017 ± 0.062	0.0005 ± 0.049	0.0065 ± 0.059	-0.026 ± 0.011	-0.0105 ± 0.023	-0.005 ± 0.0028
4H:CD106/VCAM-1	0.004 ± 0.02	-0.011 ± 0.0042	-0.012 ± 0.0028	-0.005 ± 0.011	0.013 ± 0.034	-0.0335 ± 0.044	-0.03 ± 0.0057	-0.0245 ± 0.032	-0.029 ± 0.0071	0.019 ± 0.013	0.027 ± 0.014	0.049 ± 0.0099	-0.0085 ± 0.00071	0.0075 ± 0.037	0.01 ± 0.033	-0.025 ± 0.023	-0.0105 ± 0.013	0.0085 ± 0.0078
4H:SRB	0.001 ± 0.011	-0.0135 ± 0.005	0.005 ± 0.014	0.007 ± 0.038	-0.005 ± 0.011	-0.0815 ± 0.0021	-0.0105 ± 0.011	0.002 ± 0.0014	-0.008 ± 0.0042	0.0045 ± 0.0064	0 ± 0.0028	0.009 ± 0.0057	-0.015 ± 0.0057	-0.0035 ± 0.0021	-0.016 ± 0.023	-0.0005 ± 0.012	-0.004 ± 0.0014	0.0135 ± 0.015
4H:VEGFR2	0.025 ± 0.0057	-0.0665 ± 0.057	-0.0115 ± 0.069	-0.004 ± 0.059	-0.0175 ± 0.035	-0.006 ± 0.044	-0.008 ± 0.0085	-0.0565 ± 0.039	-0.033 ± 0.0099	-0.002 ± 0.014	-0.0135 ± 0.005	0.001 ± 0.0071	0.009 ± 0.086	0.028 ± 0.057	0.0365 ± 0.12	-0.071 ± 0.035	-0.021 ± 0.033	-0.0205 ± 0.0064
BE3C:CD54/ICAM-1	-0.0035 ± 0.033	-0.0265 ± 0.005	-0.0205 ± 0.0021	-0.0105 ± 0.021	-0.008 ± 0.016	-0.001 ± 0.018	0.004 ± 0.016	-0.004 ± 0.034	0.0095 ± 0.0035	0.0115 ± 0.037	0.0145 ± 0.033	0.0295 ± 0.033	0.001 ± 0.011	-0.0115 ± 0.0092	-0.022 ± 0.017	-0.019 ± 0.024	-0.008 ± 0.0057	0.01 ± 0.0028
BE3C:CD87/uPAR	-0.08 ± 0.048	-0.102 ± 0.0057	-0.108 ± 0.033	-0.096 ± 0.0042	-0.01 ± 0.0071	-0.0025 ± 0.019	0.138 ± 0.019	0.046 ± 0.013	0.0495 ± 0.019	-0.0035 ± 0.0021	-0.011 ± 0.0057	0.025 ± 0.024	-0.014 ± 0.035	0.012 ± 0.014	0.0075 ± 0.0021	0.005 ± 0.0099	-0.0025 ± 0.0064	0.0145 ± 0.0021
BE3C:CXCL8/IL-8	-0.094 ± 0.044	-0.137 ± 0.015	-0.171 ± 0.0092	-0.157 ± 0.011	-0.123 ± 0.0099	-0.192 ± 0.013	-0.113	-0.03 ± 0.0057	-0.175 ± 0.0042	0.05 ± 0.038	0.039 ± 0.023	0.0625 ± 0.00071	0.0135 ± 0.016	0.008 ± 0.038	0.04 ± 0.0028	-0.001 ± 0.0085	-0.006 ± 0.0014	0.043 ± 0.04
